Reference: patent publication US11000033B2, “Ketone or oxime compound, and herbicide” (NISSAN CHEMICAL CORPORATION, priority 2014, dated 2021)

Key:
Format in all cases: in vivo
Digitaria ciliaris [1] = assay: Test Example 4: herbicidal effect by soil treatment (symbol F); conditions: for F: Digitaria ciliaris, herbicidal effect grade: 320 g/ha; for Herbicidal effect grade, F: Digitaria ciliaris: application herbicide amount 320 g/ha
In short: (§1)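 Seeds were sown in sterilized diluvial soil, covered with about 1.5 cm of soil, and the soil surface was sprayed with a water-diluted emulsion of the compound at a predetermined rate. Plants grew in a greenhouse at 25° C. to 30° C.; effects were scored visually 3 weeks after application.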

rapeseed [2] = assay: Test Example 4: effect on crop by soil treatment (symbol g); conditions: for g: rapeseed, effect grade on crop: 320 g/ha; for Effect on crop grade, g: rapeseed: application herbicide amount 320 g/ha
In short: (§2)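 Crop seed is sown in spots together with several weed species in a box of sterilized diluvial soil. It is covered by about 1.5 cm of soil and kept in a greenhouse held between 25° C. and 30° C.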

Chenopodium album [3] = assay: Test Example 4: herbicidal effect by soil treatment (symbol O); conditions: for O: Chenopodium album, herbicidal effect grade: 320 g/ha; for Herbicidal effect grade, O: Chenopodium album: application herbicide amount 320 g/ha
In short: as §1

corn = assay: Test Example 5: effect on crop by foliage application, plastic box (symbol c); conditions: 320 g/ha, 3 weeks after application
In short: (§3)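 Diluvial soil, sterilized and boxed (21 × 13 × 7 cm), received spot-sown seed covered by about 1.5 cm soil; plants were then greenhouse-grown at 25–30° C.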

Lolium multiflorum Lam. = assay: Test Example 4: herbicidal effect by soil treatment (symbol K); conditions: for K: Lolium multiflorum Lam., herbicidal effect grade: 320 g/ha; for Herbicidal effect grade, K: Lolium multiflorum Lam.: application herbicide amount 320 g/ha
In short: as §1

wheat = assay: Test Example 5: effect on crop by foliage application, plastic box (symbol e); conditions: 320 g/ha, 3 weeks after application
In short: as §3

rapeseed [4] = assay: Test Example 5: effect on crop by foliage application, plastic box (symbol g); conditions: 320 g/ha, 3 weeks after application
In short: as §3

[5] = system: Echinochloa crus-galli var. crus-galli; assay: Test Example 4: herbicidal effect by soil treatment (symbol H); conditions: for H: Echinochloa crus-galli var. crus-galli, herbicidal effect grade: 320 g/ha; for Herbicidal effect grade, H: Echinochloa crus-galli var. crus-galli: application herbicide amount 320 g/ha
In short: as §1

Avena fatua [6] = assay: Test Example 5: herbicidal effect by foliage application, plastic box (symbol I); conditions: 320 g/ha, 3 weeks after application
In short: (§4)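 Herbicide, formulated as an emulsion and diluted in water, is sprayed onto the aerial parts of 14-day seedlings. These were grown at 25° C. to 30° C. in sterilized diluvial soil; effects are graded after 3 weeks.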

Veronica persica = assay: Test Example 5: herbicidal effect by foliage application, plastic box (symbol R); conditions: 320 g/ha, 3 weeks after application
In short: as §4

Digitaria ciliaris [7] = assay: Test Example 5: herbicidal effect by foliage application, plastic box (symbol F); conditions: 320 g/ha, 3 weeks after application
In short: as §4

[8] = system: directly sowed rice plant; assay: Test Example 3: effect on crop by foliage application, Wagner pot (symbol b); conditions: application herbicide amount 320 g/ha; for b (directly sowed rice plant) effect on crop grade: Table 24
In short: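 Greenhouse culture at 25–30 °C of seeded rice, Cyperus difformis, Leptochloa chinensis and Echinochloa crus-galli var. crus-galli, in alluvial soil held under 0.1–0.5 cm of water in a Wagner pot.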

Stellaria media = assay: Test Example 5: herbicidal effect by foliage application, plastic box (symbol P); conditions: 320 g/ha, 3 weeks after application
In short: as §4

Scirpus juncoides = assay: Test Example 1: herbicidal activity, application before weed generation in submerged conditions (symbol B); conditions: application herbicide amount 320 g/ha
In short: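 Pre-emergence, paddy conditions: emulsifiable formulation diluted in water, dosed onto floodwater (4 cm depth) on sowing day. Alluvial soil; weeds sown mixed; rice transplanted at 2.5-leaf stage. Greenhouse 25–30 °C, 3 wk. Score 0–5 (5 = ≥90% kill, 0 = ≤5%).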

Avena fatua [9] = assay: Test Example 4: herbicidal effect by soil treatment (symbol I); conditions: for I: Avena fatua, herbicidal effect grade: 320 g/ha; for Herbicidal effect grade, I: Avena fatua: application herbicide amount 320 g/ha
In short: as §1

Chenopodium album [10] = assay: Test Example 5: herbicidal effect by foliage application, plastic box (symbol O); conditions: 320 g/ha, 3 weeks after application
In short: as §4

rice = assay: Test Example 4: effect on crop by soil treatment (symbol b); conditions: for b: directly sowed rice plant, effect grade on crop: 320 g/ha; for Effect on crop grade, b: directly sowed rice plant: application herbicide amount 320 g/ha
In short: as §2

SMILES	F: Digitaria ciliaris, herbicidal effect grade (Digitaria ciliaris [1])	g: rapeseed, effect grade on crop (rapeseed [2])	O: Chenopodium album, herbicidal effect grade (Chenopodium album [3])	c: corn, effect on crop (criteria 0-5) (corn)	K: Lolium multiflorum Lam., herbicidal effect grade (Lolium multiflorum Lam.)	e: wheat, effect on crop (criteria 0-5) (wheat)	g: rapeseed, effect on crop (criteria 0-5) (rapeseed [4])	H: Echinochloa crus-galli var. crus-galli, herbicidal effect grade [5]	I: Avena fatua, herbicidal effect (criteria 0-5) (Avena fatua [6])	R: Veronica persica, herbicidal effect (criteria 0-5) (Veronica persica)	F: Digitaria ciliaris, herbicidal effect (criteria 0-5) (Digitaria ciliaris [7])	effect on crop b (directly sowed rice plant), grade 0-5 [8]	P: Stellaria media, herbicidal effect (criteria 0-5) (Stellaria media)	Herbicidal effect grade, B: Scirpus juncoides (Scirpus juncoides)	I: Avena fatua, herbicidal effect grade (Avena fatua [9])	O: Chenopodium album, herbicidal effect (criteria 0-5) (Chenopodium album [10])	b: directly sowed rice plant, effect grade on crop (rice)	Herbicidal effect grade, F: Digitaria ciliaris (Digitaria ciliaris [1])	Effect on crop grade, g: rapeseed (rapeseed [2])	Herbicidal effect grade, O: Chenopodium album (Chenopodium album [3])	also measured
CC(CC1CC(O)=C(c2c(C)cc(C)cc2C)C1=O)=NOCc1ccccc1C(F)(F)F (stereo not shown) [1-116]	1 (Herbicidal ratio of 5% or higher and lower than 20%)	2 (Herbicidal ratio of 20% or higher and lower than 40%)	0 (Herbicidal ratio of 5% or lower (almost no effect))	5 (Herbicidal ratio of 90% or more (almost completely withered))	4 (Herbicidal ratio of 70% or higher and lower than 90%)	3 (Herbicidal ratio of 40% or higher and lower than 70%)	5 (Herbicidal ratio of 90% or more (almost completely withered))	3 (Herbicidal ratio of 40% or higher and lower than 70%)	4 (Herbicidal ratio of 70% or higher and lower than 90%)	3 (Herbicidal ratio of 40% or higher and lower than 70%)	5 (Herbicidal ratio of 90% or more (almost completely withered))	5 (Herbicidal ratio of 90% or more (almost completely withered))	2 (Herbicidal ratio of 20% or higher and lower than 40%)	4 (Herbicidal ratio of 70% or higher and lower than 90%)	3 (Herbicidal ratio of 40% or higher and lower than 70%)	3 (Herbicidal ratio of 40% or higher and lower than 70%)	1 (Herbicidal ratio of 5% or higher and lower than 20%)				
CCC(Oc1ccc2ncc(Br)cc2c1)C(=O)OC1=C(c2c(C)cc(C)cc2C)C(=O)C(CC(C)=NOC)C1 (stereo not shown) [1-140]	5 (Herbicidal ratio of 90% or more (almost completely withered))	4 (Herbicidal ratio of 70% or higher and lower than 90%)	0 (Herbicidal ratio of 5% or lower (almost no effect))	4 (Herbicidal ratio of 70% or higher and lower than 90%)	5 (Herbicidal ratio of 90% or more (almost completely withered))	5 (Herbicidal ratio of 90% or more (almost completely withered))	5 (Herbicidal ratio of 90% or more (almost completely withered))	5 (Herbicidal ratio of 90% or more (almost completely withered))	5 (Herbicidal ratio of 90% or more (almost completely withered))	3 (Herbicidal ratio of 40% or higher and lower than 70%)	5 (Herbicidal ratio of 90% or more (almost completely withered))	5 (Herbicidal ratio of 90% or more (almost completely withered))	3 (Herbicidal ratio of 40% or higher and lower than 70%)	5 (Herbicidal ratio of 90% or more (almost completely withered))	4 (Herbicidal ratio of 70% or higher and lower than 90%)	2 (Herbicidal ratio of 20% or higher and lower than 40%)	5 (Herbicidal ratio of 90% or more (almost completely withered))				
CC#Cc1cc(C)c(C2=C(O)CC(CC(=NOCC(F)(F)F)C(C)C)C2=O)c(C)c1 (stereo not shown) [9-015]																		5 (Herbicidal ratio of 90% or more (almost completely withered))	0 (Herbicidal ratio of 5% or lower (almost no effect))	0 (Herbicidal ratio of 5% or lower (almost no effect))	c: corn, effect on crop grade (corn): 5 (Herbicidal ratio of 90% or more (almost completely withered)); Herbicidal effect grade, K: Lolium multiflorum Lam. (Lolium multiflorum Lam.): 5 (Herbicidal ratio of 90% or more (almost completely withered)); e: wheat, effect on crop grade (wheat): 3 (Herbicidal ratio of 40% or higher and lower than 70%); g: rapeseed, effect on crop grade (rapeseed [4]): 5 (Herbicidal ratio of 90% or more (almost completely withered)); Herbicidal effect grade, H: Echinochloa crus-galli var. crus-galli [5]: 5 (Herbicidal ratio of 90% or more (almost completely withered)); I: Avena fatua, herbicidal effect grade (Avena fatua [6]): 4 (Herbicidal ratio of 70% or higher and lower than 90%); R: Veronica persica, herbicidal effect grade (Veronica persica): 4 (Herbicidal ratio of 70% or higher and lower than 90%); F: Digitaria ciliaris, herbicidal effect grade (Digitaria ciliaris [7]): 5 (Herbicidal ratio of 90% or more (almost completely withered)); b (directly sowed rice plant) effect on crop grade [8]: 5 (Herbicidal ratio of 90% or more (almost completely withered)); P: Stellaria media, herbicidal effect grade (Stellaria media): 3 (Herbicidal ratio of 40% or higher and lower than 70%); B (Scirpus juncoides) herbicidal effect grade (Scirpus juncoides): 5 (Herbicidal ratio of 90% or more (almost completely withered)); Herbicidal effect grade, I: Avena fatua (Avena fatua [9]): 1 (Herbicidal ratio of 5% or higher and lower than 20%); O: Chenopodium album, herbicidal effect grade (Chenopodium album [10]): 3 (Herbicidal ratio of 40% or higher and lower than 70%); Effect on crop grade, b: directly sowed rice plant (rice): 5 (Herbicidal ratio of 90% or more (almost completely withered))
Cc1cc(-n2cc(Cl)cn2)cc(C)c1C1=C(O)CC(CC(=NOCC(F)(F)F)C(C)C)C1=O (stereo not shown) [9-014]																		4 (Herbicidal ratio of 70% or higher and lower than 90%)	0 (Herbicidal ratio of 5% or lower (almost no effect))	0 (Herbicidal ratio of 5% or lower (almost no effect))	c: corn, effect on crop grade (corn): 5 (Herbicidal ratio of 90% or more (almost completely withered)); Herbicidal effect grade, K: Lolium multiflorum Lam. (Lolium multiflorum Lam.): 0 (Herbicidal ratio of 5% or lower (almost no effect)); e: wheat, effect on crop grade (wheat): 1 (Herbicidal ratio of 5% or higher and lower than 20%); g: rapeseed, effect on crop grade (rapeseed [4]): 2 (Herbicidal ratio of 20% or higher and lower than 40%); Herbicidal effect grade, H: Echinochloa crus-galli var. crus-galli [5]: 1 (Herbicidal ratio of 5% or higher and lower than 20%); I: Avena fatua, herbicidal effect grade (Avena fatua [6]): 4 (Herbicidal ratio of 70% or higher and lower than 90%); R: Veronica persica, herbicidal effect grade (Veronica persica): 2 (Herbicidal ratio of 20% or higher and lower than 40%); F: Digitaria ciliaris, herbicidal effect grade (Digitaria ciliaris [7]): 5 (Herbicidal ratio of 90% or more (almost completely withered)); b (directly sowed rice plant) effect on crop grade [8]: 5 (Herbicidal ratio of 90% or more (almost completely withered)); P: Stellaria media, herbicidal effect grade (Stellaria media): 0 (Herbicidal ratio of 5% or lower (almost no effect)); B (Scirpus juncoides) herbicidal effect grade (Scirpus juncoides): 4 (Herbicidal ratio of 70% or higher and lower than 90%); Herbicidal effect grade, I: Avena fatua (Avena fatua [9]): 0 (Herbicidal ratio of 5% or lower (almost no effect)); O: Chenopodium album, herbicidal effect grade (Chenopodium album [10]): 0 (Herbicidal ratio of 5% or lower (almost no effect)); Effect on crop grade, b: directly sowed rice plant (rice): 1 (Herbicidal ratio of 5% or higher and lower than 20%)
CC(CC1CC(O)=C(c2c(C)cc(C)cc2C)C1=O)=NOCC1OCCO1 (stereo not shown) [1-111]	5 (Herbicidal ratio of 90% or more (almost completely withered))	4 (Herbicidal ratio of 70% or higher and lower than 90%)	0 (Herbicidal ratio of 5% or lower (almost no effect))	5 (Herbicidal ratio of 90% or more (almost completely withered))	5 (Herbicidal ratio of 90% or more (almost completely withered))	5 (Herbicidal ratio of 90% or more (almost completely withered))	5 (Herbicidal ratio of 90% or more (almost completely withered))	5 (Herbicidal ratio of 90% or more (almost completely withered))	5 (Herbicidal ratio of 90% or more (almost completely withered))	1 (Herbicidal ratio of 5% or higher and lower than 20%)	5 (Herbicidal ratio of 90% or more (almost completely withered))	5 (Herbicidal ratio of 90% or more (almost completely withered))	3 (Herbicidal ratio of 40% or higher and lower than 70%)	2 (Herbicidal ratio of 20% or higher and lower than 40%)	3 (Herbicidal ratio of 40% or higher and lower than 70%)	1 (Herbicidal ratio of 5% or higher and lower than 20%)	5 (Herbicidal ratio of 90% or more (almost completely withered))				
